# Reference: US6737383B1, “Herbicidal oxadiazolidines” (priority 1999, dated 2004)
# Experiments:
# surinam grass = assay: Test B pre/postemergence surinam grass; assay type: in vivo, Brachiaria decumbens
# Procedure, shortened: (§1)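 Test chemicals in a non-phytotoxic solvent mixture with surfactant were sprayed preemergence onto planted seeds and postemergence onto plants 2 to 18 cm tall (1- to 4-leaf stage). After twelve to sixteen days in a greenhouse, injury was visually rated against untreated controls from 0 (no effect) to 10 (complete control).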
# cocklebur = assay: Test B pre/postemergence cocklebur; assay type: in vivo, Xanthium strumarium
# Procedure, shortened: as §1
# corn = assay: Test B pre/postemergence corn; assay type: in vivo, Zea mays
# Procedure, shortened: as §1
# crabgrass = assay: Test B pre/postemergence crabgrass; assay type: in vivo, Digitaria sanguinalis
# Procedure, shortened: as §1
# giant foxtail = assay: Test B pre/postemergence giant foxtail; assay type: in vivo, Setaria faberii
# Procedure, shortened: as §1
# morningglory = assay: Test B pre/postemergence morningglory; assay type: in vivo, Ipomoea hederacea
# Procedure, shortened: as §1
# pigweed = assay: Test B pre/postemergence pigweed; assay type: in vivo, Amaranthus retroflexus
# Procedure, shortened: as §1
# rape = assay: Test B pre/postemergence rape; assay type: in vivo, Brassica napus
# Procedure, shortened: as §1
# sugar beet = assay: Test B pre/postemergence sugar beet; assay type: in vivo, Beta vulgaris
# Procedure, shortened: as §1
# wheat = assay: Test B pre/postemergence wheat; assay type: in vivo, Triticum aestivum
# Procedure, shortened: as §1
# wild oat = assay: Test B pre/postemergence wild oat; assay type: in vivo, Avena fatua
# Procedure, shortened: as §1
# purple nutsedge = assay: Test B pre/postemergence purple nutsedge; assay type: in vivo, Cyperus rotundus
# Procedure, shortened: as §1
# rice = assay: Test B flood test rice; assay type: in vivo, Oryza sativa
# Procedure, shortened: (§2)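 Flood test on plants grown to the 2-leaf stage; treated plants kept in greenhouse twelve to sixteen days, then visually rated against controls on a 0 (no effect) to 10 (complete control) scale.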
# smallflower flatsedge = assay: Test B flood test smallflower flatsedge; assay type: in vivo, Cyperus difformis
# Procedure, shortened: as §2
# duck salad = assay: Test B flood test duck salad; assay type: in vivo, Heteranthera limosa
# Procedure, shortened: as §2
# bamyardgrass = assay: Test B flood test barnyardgrass; assay type: in vivo, Echinochloa crus-galli
# Procedure, shortened: as §2
# [1] = Preemergence, Rate 62 g/ha, scale of 0 to 10 where 0 is no effect and 10 is complete control
# [2] = Preemergence, Rate 500 g/ha, scale of 0 to 10 where 0 is no effect and 10 is complete control
# [3] = Rate 62 g/ha, Postemergence, scale of 0 to 10 where 0 is no effect and 10 is complete control
# [4] = Rate 125 g/ha, Preemergence, scale of 0 to 10 where 0 is no effect and 10 is complete control
# [5] = Rate 500 g/ha, Postemergence, scale 0 to 10, 0 no effect, 10 complete control
# [6] = Preemergence, Rate 250 g/ha, scale of 0 to 10 where 0 is no effect and 10 is complete control
# [7] = Rate 125 g/ha, Postemergence, scale 0 to 10
# [8] = Rate 62 g/ha, headed Pre-emergence (flood test species), scale 0 to 10 (0 no effect, 10 complete control)
# [9] = Rate 125 g/ha, Pre-emergence, flood test species, scale 0 to 10 where 0 is no effect and 10 is complete control
# [10] = Rate 250 g/ha, Pre-emergence, flood-test species, scale 0 to 10, 0 is no effect, 10 is complete control
# [11] = Rate 500 g/ha, Pre-emergence, flood test species, scale 0 to 10 (0 no effect, 10 complete control)
compound,measurement,setting,value
CC(C)N(C(=O)n1oc(=O)n(-c2cccnc2)c1=O)c1ccc(F)cc1 [Compound 234],B. signalgrass plant response rating,surinam grass; [1],0
same,B. signalgrass plant response rating,"surinam grass; Preemergence, Rate 250 g/ha, scale 0 to 10, 0 is no effect, 10 is complete control",0
same,"Plant response rating, B. signalgrass",surinam grass; [2],0
same,B. signalgrass plant response rating,surinam grass; [3],0
same,B. signalgrass plant response rating,"surinam grass; Rate 125 g/ha, Postemergence, scale 0 (no effect) to 10 (complete control)",0
same,B. signalgrass plant response rating,surinam grass; [4],0
same,"Plant response rating (0 to 10; 0 is no effect, 10 is complete control), B. signalgrass","surinam grass; Rate 250 g/ha, Postemergence",0
same,B. signalgrass plant response rating,surinam grass; [5],0
same,Cocklebur plant response rating,cocklebur; [1],0
same,Cocklebur plant response rating,cocklebur; [6],0
same,"Plant response rating, Cocklebur",cocklebur; [2],0
same,Cocklebur plant response rating,cocklebur; [3],0
same,Cocklebur plant response rating,cocklebur; [7],0
same,Cocklebur plant response rating,cocklebur; [4],0
same,"Plant response rating (0 to 10; 0 is no effect, 10 is complete control), Cocklebur","cocklebur; Rate 250 g/ha, Postemergence",0
same,Cocklebur plant response rating,cocklebur; [5],3
same,Corn plant response rating,corn; [1],0
same,Corn plant response rating,corn; [6],0
same,"Plant response rating, Corn",corn; [2],0
same,Corn plant response rating,corn; [3],0
same,Corn plant response rating,corn; [7],0
same,Corn plant response rating,corn; [4],0
same,"Plant response rating (0 to 10; 0 is no effect, 10 is complete control), Corn","corn; Rate 250 g/ha, Postemergence",0
same,Corn plant response rating,corn; [5],0
same,Crabgrass plant response rating,crabgrass; [1],0
same,Crabgrass plant response rating,crabgrass; [6],0
same,"Plant response rating, Crabgrass",crabgrass; [2],0
same,Crabgrass plant response rating,crabgrass; [3],0
same,Crabgrass plant response rating,crabgrass; [7],0
same,Crabgrass plant response rating,crabgrass; [4],0
same,"Plant response rating (0 to 10; 0 is no effect, 10 is complete control), Crabgrass","crabgrass; Rate 250 g/ha, Postemergence",0
same,Crabgrass plant response rating,crabgrass; [5],0
same,Giant foxtail plant response rating,giant foxtail; [1],0
same,Giant foxtail plant response rating,giant foxtail; [6],0
same,"Plant response rating, Giant foxtail",giant foxtail; [2],0
same,Giant foxtail plant response rating,giant foxtail; [3],0
same,Giant foxtail plant response rating,giant foxtail; [7],0
same,Giant foxtail plant response rating,giant foxtail; [4],0
same,"Plant response rating (0 to 10; 0 is no effect, 10 is complete control), Giant foxtail","giant foxtail; Rate 250 g/ha, Postemergence",0
same,Giant foxtail plant response rating,giant foxtail; [5],0
same,Morningglory plant response rating,morningglory; [1],0
same,Morningglory plant response rating,morningglory; [6],0
same,"Plant response rating, Morningglory",morningglory; [2],0
same,Morningglory plant response rating,morningglory; [3],0
same,Morningglory plant response rating,morningglory; [7],0
same,Morningglory plant response rating,morningglory; [4],0
same,"Plant response rating (0 to 10; 0 is no effect, 10 is complete control), Morningglory","morningglory; Rate 250 g/ha, Postemergence",1
same,Morningglory plant response rating,morningglory; [5],2
same,Redroot pigweed plant response rating,pigweed; [1],0
same,Redroot pigweed plant response rating,pigweed; [6],0
same,"Plant response rating, Redroot pigweed",pigweed; [2],0
same,Redroot pigweed plant response rating,pigweed; [3],0
same,Redroot pigweed plant response rating,pigweed; [7],0
same,Redroot pigweed plant response rating,pigweed; [4],0
same,"Plant response rating (0 to 10; 0 is no effect, 10 is complete control), Redroot pigweed","pigweed; Rate 250 g/ha, Postemergence",0
same,Redroot pigweed plant response rating,pigweed; [5],0
same,Rape plant response rating,rape; [1],0
same,Rape plant response rating,rape; [6],0
same,"Plant response rating, Rape",rape; [2],0
same,Rape plant response rating,rape; [3],0
same,Rape plant response rating,rape; [7],0
same,Rape plant response rating,rape; [4],0
same,"Plant response rating (0 to 10; 0 is no effect, 10 is complete control), Rape","rape; Rate 250 g/ha, Postemergence",0
same,Rape plant response rating,rape; [5],0
same,Sugarbeets plant response rating,sugar beet; [1],0
same,Sugarbeets plant response rating,sugar beet; [6],0
same,"Plant response rating, Sugarbeets",sugar beet; [2],0
same,Sugarbeets plant response rating,sugar beet; [3],0
same,Sugarbeets plant response rating,sugar beet; [7],0
same,Sugarbeets plant response rating,sugar beet; [4],0
same,"Plant response rating (0 to 10; 0 is no effect, 10 is complete control), Sugarbeets","sugar beet; Rate 250 g/ha, Postemergence",0
same,Sugarbeets plant response rating,sugar beet; [5],0
same,Wheat plant response rating,wheat; [1],0
same,Wheat plant response rating,wheat; [6],0
same,"Plant response rating, Wheat",wheat; [2],0
same,Wheat plant response rating,wheat; [3],0
same,Wheat plant response rating,wheat; [7],0
same,Wheat plant response rating,wheat; [4],0
same,"Plant response rating (0 to 10; 0 is no effect, 10 is complete control), Wheat","wheat; Rate 250 g/ha, Postemergence",0
same,Wheat plant response rating,wheat; [5],0
same,Wild oats plant response rating,wild oat; [1],0
same,Wild oats plant response rating,wild oat; [6],0
same,"Plant response rating, Wild oats",wild oat; [2],0
same,Wild oats plant response rating,wild oat; [3],0
same,Wild oats plant response rating,wild oat; [7],0
same,Wild oats plant response rating,wild oat; [4],0
same,"Plant response rating (0 to 10; 0 is no effect, 10 is complete control), Wild oats","wild oat; Rate 250 g/ha, Postemergence",0
same,Wild oats plant response rating,wild oat; [5],0
same,"Plant response rating, Nutsedge",purple nutsedge; [2],0
same,Nutsedge plant response rating,purple nutsedge; [3],0
same,Nutsedge plant response rating,purple nutsedge; [7],0
same,"Plant response rating (0 to 10; 0 is no effect, 10 is complete control), Nutsedge","purple nutsedge; Rate 250 g/ha, Postemergence",0
same,Nutsedge plant response rating,purple nutsedge; [5],0
same,Rice plant response rating,rice; [8],0
same,Rice plant response rating,rice; [9],0
same,Rice plant response rating,rice; [10],0
same,Rice plant response rating,rice; [11],0
same,S. Flatsedge plant response rating,smallflower flatsedge; [8],0
same,S. Flatsedge plant response rating,smallflower flatsedge; [9],0
same,S. Flatsedge plant response rating,smallflower flatsedge; [10],0
same,S. Flatsedge plant response rating,smallflower flatsedge; [11],0
same,Ducksalad plant response rating,duck salad; [8],0
same,Ducksalad plant response rating,duck salad; [9],0
same,Ducksalad plant response rating,duck salad; [10],0
same,Ducksalad plant response rating,duck salad; [11],0
same,Barnyardgrass plant response rating,bamyardgrass; [8],0
same,Barnyardgrass plant response rating,bamyardgrass; [9],0
same,Barnyardgrass plant response rating,bamyardgrass; [10],0
same,Barnyardgrass plant response rating,bamyardgrass; [11],0
